Measured values published in patent US7638537B2, “Pyrazole compounds as transforming growth factor (TGF) inhibitors” (Pfizer Inc., priority 2002, dated 2009).

Molecular target: T1, ALK-5 (TβRI) (Homo sapiens, UniProt P36897)
T1 construct: using either the kinase domain of ALK5 with Smad3 as substrate; GST
T1 sequence (P36897 205-495 limits assumed): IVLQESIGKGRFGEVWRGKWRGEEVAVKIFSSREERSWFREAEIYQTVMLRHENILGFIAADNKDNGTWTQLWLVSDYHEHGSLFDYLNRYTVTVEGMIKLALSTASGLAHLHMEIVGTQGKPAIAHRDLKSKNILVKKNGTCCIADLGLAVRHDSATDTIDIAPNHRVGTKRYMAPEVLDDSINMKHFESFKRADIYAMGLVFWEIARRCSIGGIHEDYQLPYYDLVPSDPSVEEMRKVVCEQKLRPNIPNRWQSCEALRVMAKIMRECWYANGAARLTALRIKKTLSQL
Assay: ALK-5 (TβRI) Kinase Assay
Type: biochemical
Method: The kinase assays were performed with 65 nM GST-ALK5 and 84 nM GST-Smad3 in 50 mM HEPES, 5 mM MgCl2, 1 mM CaCl2, 1 mM dithiothreitol, and 3_M ATP. Reactions were incubated with 0.5_Ci of [33 P]_ATP for 3 h at 30° C. Phosphorylated protein was captured on P-81 paper (Whatman, Maidstone, England), washed with 0.5% phosphoric acid, and counted by liquid scintillation. Alternatively, Smad3 or Smad1 protein was also coated onto FlashPlate Sterile Basic Microplates (PerkinElmer Life Sciences, Boston, Mass.). Kinase assays were then performed in Flash-Plates with same assay conditions using either the kinase domain of ALK5 with Smad3 as substrate or the kinase domain of ALK6 (BMP receptor) with Smad1 as substrate. Plates were washed three times with phosphate buffer and counted by TopCount (Packard Bio-science, Meriden, Conn.). (Laping, N. J. et al. Molecular Pharmacology 62:58-64 (2002)).

c1ccc(-c2n[nH]cc2-c2ccc3c(c2)OCO3)nc1 [Example 7, 2-(4-Benzo[1,3]dioxol-5-yl-1H-pyrazol-3-yl)-pyridine]
IC50: ~51 nM
